Several values for one entry are separate records, joined by “and”; a condition that tells them apart may be missing. Identical values can stand only once. Numbers after ± are expanded uncertainties.
Tests used:
[1] = Molar enthalpy of transition or fusion; conditions: Crystal; DSC
[2] = Crystal; for vapor or sublimation pressure: Calculated from knudsen effusion weight loss; for Normal melting temperature: DTA

COC(=O)c1cccc(C(=O)O)c1 [1,3-benzenedicarboxylic acid, monomethyl ester]
Conditions | Molar enthalpy of transition or fusion [kcal/mol] | Normal melting temperature [°C]
[1] | 8.72 ± 0.189 | –
[2] | – | 193.53 ± 0.39

[2]
Conditions | vapor or sublimation pressure
359.26 K | 0.000134 ± 2.1e-05 kPa and 0.000136 ± 2.1e-05 kPa
361.24 K | 0.000172 ± 2.1e-05 kPa and 0.000169 ± 2.1e-05 kPa
363.28 K | 0.000211 ± 2.1e-05 kPa and 0.00021 ± 2.1e-05 kPa and 0.000202 ± 2.1e-05 kPa
365.26 K | 0.000256 ± 2.2e-05 kPa and 0.000252 ± 2.2e-05 kPa and 0.000264 ± 2.2e-05 kPa
367.13 K | 0.000313 ± 2.3e-05 kPa and 0.000311 ± 2.3e-05 kPa
369.28 K | 0.000397 ± 2.4e-05 kPa and 0.000399 ± 2.4e-05 kPa and 0.000382 ± 2.4e-05 kPa
371.24 K | 0.000499 ± 2.7e-05 kPa and 0.000487 ± 2.6e-05 kPa and 0.000474 ± 2.6e-05 kPa
373.12 K | 0.000588 ± 2.9e-05 kPa and 0.000586 ± 2.9e-05 kPa and 0.000569 ± 2.8e-05 kPa
375.27 K | 0.000773 ± 3.4e-05 kPa and 0.000759 ± 3.3e-05 kPa and 0.000741 ± 3.3e-05 kPa
377.24 K | 0.000953 ± 3.9e-05 kPa and 0.000928 ± 3.8e-05 kPa and 0.000917 ± 3.8e-05 kPa
379.12 K | 0.001122 ± 8.9e-05 kPa and 0.001111 ± 8.8e-05 kPa

COC(=O)c1ccc(C(=O)O)cc1 [1,4-benzenedicarboxylic acid, monomethyl ester]
Conditions | Molar enthalpy of transition or fusion [kcal/mol] | Normal melting temperature [°C]
[1] | 9.01 ± 0.215 | –
[2] | – | 219.39 ± 0.39

[2]
Conditions | vapor or sublimation pressure
363.16 K | 0.000139 ± 2.1e-05 kPa and 0.00014 ± 2.1e-05 kPa
365.15 K | 0.000169 ± 2.1e-05 kPa and 0.000171 ± 2.1e-05 kPa and 0.000167 ± 2.1e-05 kPa
367.19 K | 0.000212 ± 2.1e-05 kPa and 0.000209 ± 2.1e-05 kPa
370.18 K | 0.000289 ± 2.2e-05 kPa and 0.000294 ± 2.3e-05 kPa and 0.000286 ± 2.2e-05 kPa
372.17 K | 0.000361 ± 2.4e-05 kPa and 0.000363 ± 2.4e-05 kPa and 0.000354 ± 2.4e-05 kPa
374.2 K | 0.000452 ± 2.6e-05 kPa and 0.000449 ± 2.6e-05 kPa and 0.000439 ± 2.5e-05 kPa
377.37 K | 0.00063 ± 3e-05 kPa and 0.000621 ± 3e-05 kPa and 0.00062 ± 3e-05 kPa
379.26 K | 0.000768 ± 3.4e-05 kPa and 0.000743 ± 3.3e-05 kPa and 0.000739 ± 3.3e-05 kPa
381.51 K | 0.00094 ± 3.9e-05 kPa and 0.000931 ± 3.9e-05 kPa and 0.000926 ± 3.8e-05 kPa

COC(=O)c1ccccc1C(=O)O [phthalic acid, monomethyl ester]
Conditions | Molar enthalpy of transition or fusion [kcal/mol] | Normal melting temperature [°C]
[1] | 5.17 ± 0.263 | –
[2] | – | 84.4 ± 0.48

[2]
Conditions | vapor or sublimation pressure
335.28 K | 0.000112 ± 2e-05 kPa and 0.000118 ± 2e-05 kPa and 0.000115 ± 2e-05 kPa
337.26 K | 0.000154 ± 2.1e-05 kPa and 0.000148 ± 2.1e-05 kPa and 0.000149 ± 2.1e-05 kPa
339.2 K | 0.000184 ± 2.1e-05 kPa and 0.000187 ± 2.1e-05 kPa and 0.00019 ± 2.1e-05 kPa
341.24 K | 0.000239 ± 2.2e-05 kPa and 0.000243 ± 2.2e-05 kPa
343.11 K | 0.000298 ± 2.3e-05 kPa and 0.000306 ± 2.3e-05 kPa and 0.000301 ± 2.3e-05 kPa
345.27 K | 0.000388 ± 2.4e-05 kPa and 0.000386 ± 2.4e-05 kPa
347.24 K | 0.000471 ± 2.6e-05 kPa and 0.00048 ± 2.6e-05 kPa and 0.000468 ± 2.6e-05 kPa
349.12 K | 0.000579 ± 2.9e-05 kPa and 0.000575 ± 2.9e-05 kPa and 0.000593 ± 2.9e-05 kPa
351.06 K | 0.000743 ± 3.3e-05 kPa and 0.000733 ± 3.3e-05 kPa and 0.000751 ± 3.3e-05 kPa
353.23 K | 0.000981 ± 4e-05 kPa and 0.000964 ± 4e-05 kPa and 0.000948 ± 3.9e-05 kPa
355.28 K | 0.001233 ± 0.0001 kPa and 0.001242 ± 0.0001 kPa

Source: the NIST ThermoML archive (doi:10.1021/je0503305)
